{"source": "paper PMC11983575", "about": "“Study on the synthesis and biological activity of kojic acid triazol thiosemicarbazide Schiff base derivatives” (Journal of Enzyme Inhibition and Medicinal Chemistry, 2025)", "key": {"mushroom tyrosinase": {"molecular_target": "mushroom tyrosinase (Agaricus bisporus, UniProt C7FF04)", "sequence (C7FF04 1-392)": "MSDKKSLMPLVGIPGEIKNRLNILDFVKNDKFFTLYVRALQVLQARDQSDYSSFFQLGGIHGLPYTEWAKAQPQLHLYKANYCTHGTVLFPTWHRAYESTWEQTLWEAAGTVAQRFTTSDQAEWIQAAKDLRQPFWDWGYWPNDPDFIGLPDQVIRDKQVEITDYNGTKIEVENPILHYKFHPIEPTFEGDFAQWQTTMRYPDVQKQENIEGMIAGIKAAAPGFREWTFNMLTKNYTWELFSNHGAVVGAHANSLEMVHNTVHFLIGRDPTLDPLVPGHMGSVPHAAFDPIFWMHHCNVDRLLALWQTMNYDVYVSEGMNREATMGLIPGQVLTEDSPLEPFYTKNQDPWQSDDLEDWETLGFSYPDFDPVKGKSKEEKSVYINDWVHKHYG", "assay": "In vitro mushroom tyrosinase inhibition (L-DOPA substrate)", "assay_type": "biochemical", "settings": "475 nm, read-out: IC50 (μM) ± SD, inhibitory tyrosinase activity", "method": "The mushroom tyrosinase inhibitory activity was determined according to previous described method. Briefly, 168 μl of phosphate buffer (0.1 M, pH 6.8), 10 μl of mushroom tyrosinase (0.5 mg/ml, Sigma Chemical, St. Louis, MO) and 2 μl of the inhibitor solution were placed in the wells of a 96-well micro plate. After pre-incubation for 20 min at 37 °C, 20 μl of 2.0 mg/ml L-DOPA (3,4-dihydroxyphenylalanine, Sigma Chemical, St. Louis, MO) was added and the enzyme activity was measured at 475 nm every 60 s for 180 s in a Microplate Reader (Bio-Rad Laboratories, Inc., Hercules, CA). Kojic acid and phosphate buffer were respectively used as positive and negative control. The extent of inhibition by the test compounds was expressed as the percentage of concentration necessary to achieve 50% inhibition (IC50). The percentage of inhibition was calculated as follows: inhibitory rate (%) = [Ac − At)/Ac] × 100. Ac is the absorbance of the negative control and At is the absorbance of the test compound. Each concentration was analysed in three independent experiments run in triplicate. The IC50 values were determined by the data analysis software GraphPad Prism 8 (La Jolla, CA).\nThe tyrosinase inhibition measurements of compounds 6a–6x were carried out using L-DOPA as substrate. Kojic acid was selected as a positive control compound. […]. […] Moreover, inhibitory activity of compound with hydroxyl group at papa position is better than the inhibitory activity of compound with hydroxyl group at meta position, and inhibitory activity of compound with hydroxyl group at meta position is better than the inhibitory activity of compound with hydroxyl group at ortho position. […]. […] In addition, with the increase of atomic radius, the inhibitory activity gradually decreases. (3) The inhibitory activity of alkoxy substituted compound is better than that of alkyl substituted compound. (4) Comparing the tyrosinase inhibitory activity of compounds with halogen atom (6b–6d, 6q–6s) and compounds with methyl or methoxy (6e–6f, 6t–6u), when the hydrogen (R^2) was replaced by the methyl (R^2), the inhibitory activity was decreased."}, "tyrosinase": {"molecular_target": "T1, tyrosinase (Agaricus bisporus, UniProt C7FF04)", "T1 construct": "purchased Sigma-Aldrich Chemical Co. (Shanghai, China)", "T1 sequence (C7FF04 1-392 limits assumed)": "as the sequence (C7FF04 1-392) above", "assay": "Fluorescence quenching of tyrosinase (Stern-Volmer)", "assay_type": "binding", "settings": "for KSV / Kq: Stern-Volmer", "method": "To investigate fluorescence quenching role of inhibitor to the tyrosinase, fluorescence experiments were carried according to the reported method. To determine the linear concentration range of the fluorescence, compound 6w was first dissolved in DMSO. The concentration of the solution was 10 mM, and then was diluted with sodium phosphate buffer. The ultimate concentration was changed from 0 to 50 μM. A series of 3 ml solutions containing 1.5 ml of tyrosinase solution were added to a centrifuge tube and then accurately mixed with different concentrations of 6w solution range from 0 to 50 μM. Cary Eclipse G9800A fluorescence spectrophotometer (Agilent Technologies Co., Santa Clara, CA) was employed to detect the fluorescence intensity. The excitation wavelength was set to 280 nm, the bath was set as three temperatures (292 K, 298 K, and 304 K) with a scanning wavelength change from 300 to 500 nm. The excitation and emission bandwidths were 5 nm. The final tyrosinase concentration was 0.05 mg/ml.\nFluorescence quenching means that some small molecule compounds bind to protein that can affect the fluorescence intensity of the fluorophore. Therefore, in order to obtain information about conformational changes of enzymes, fluorescence spectroscopy has become a very important research tool. With increasing concentrations of compound 6w, the dramatically decreasing fluorescence intensity of tyrosinase could be found. […] At the same time, there was no significant red shift or blue shift in the fluorescence emission peak of tyrosinase after the addition of compound 6w. […] The quenching of the intrinsic fluorescence provided a direct and clear evidence that the inhibitor 6w was capable of binding to tyrosinase, and the binding of 6w to tyrosinase led to change in the microenvironment around the fluorophore, and the detailed KSV values are summarised Table 2.\nFigure 3. (A) Changes in the tyrosinase fluorescence at different concentrations of compound 6w (λex = 280 nm, T = 298 K). The final enzyme concentration was 0.05 mg/ml, and c (compound 6w) = 0 μM, 5 μM, 15 μM, 20 μM, 25 μM, 30 μM, 35 μM, 40 μM, 45 μM, and 50 μM for the curves from top to bottom, respectively. (B) The Stern–Volmer figure of compound 6w and tyrosinase at 292, 298, and 304 K."}, "fresh-cut apples": {"test_system": "fresh-cut apples", "assay": "Effects on the browning process of fresh-cut apples", "design": "species or system Fuji apples", "settings": "6w 25, 50, 100 μM; storage at 5 °C for five days; kojic acid and vitamin C 50 μM as positive controls", "method": "Fuji apples were planted in Yantai, China, and were bought from Walmart supermarket in Shaoyang, China. The apples were come from the same batch having similar shapes, maturity, and without injuries, rot, diseases, or pests. Apples were cut into thin pieces with same size by using a sharp knife. Then, the fresh-cut slices were divided randomly into different groups: blank control group was immersed in ethanol for 10 min at room temperature, treatment groups were dipped in the solution of compound 6w under the same conditions, positive groups were dipped in 50 μM kojic acid and 50 μM vitamin C under the same conditions. The test samples were air-dried naturally and immediately were separately packaged with polyethylene clam-packs, and stored at 2–8 °C, and used for the following experimental measurements.\nAccording to the reported protocol, the colour of apple samples was tested by a CR-400 Minolta […] instrument (Konica Minolta, Osaka, Japan). Three data of L*, a*, and b* were recorded for each sample. The L* values indicate lightness, the a* values show reddish-greenish, the b* values represent yellowish-bluish. The colour measurement was carried out in triplicate by random sampling.\nTherefore, we further evaluated its anti-browning effect on apple, in which kojic acid and vitamin C were used as positive control. […]"}}, "note": "“Also recorded” adds a separate entry of the source.", "data": [{"substance": "2-(1-(4-((1-((5-Hydroxy-4-oxo-4H-pyran-2-yl)methyl)-1H-1,2,3-triazol-5-yl)methoxy)phenyl)ethylidene)hydrazinecarbothioamide [Compound 6w]", "values": [{"measurement": "IC50", "setting": "mushroom tyrosinase", "value": "0.94 ± 0.035", "unit": "µM"}, {"measurement": "fluorescence quenching mechanism", "setting": "tyrosinase; 292, 298 and 304 K", "value": "dynamic quenching"}, {"measurement": "KSV", "setting": "tyrosinase; T 292 K", "value": 0.03005, "unit": "L/µmol"}, {"measurement": "Kq", "setting": "tyrosinase; T 292 K", "value": "3.0052e+13", "unit": "M⁻¹ s⁻¹"}, {"measurement": "KSV", "setting": "tyrosinase; T 298 K", "value": 0.04605, "unit": "L/µmol"}, {"measurement": "Kq", "setting": "tyrosinase; T 298 K", "value": "4.6048e+13", "unit": "M⁻¹ s⁻¹"}, {"measurement": "KSV", "setting": "tyrosinase; T 304 K", "value": 0.06529, "unit": "L/µmol"}, {"measurement": "Kq", "setting": "tyrosinase; T 304 K", "value": "6.5292e+13", "unit": "M⁻¹ s⁻¹"}, {"measurement": "anti-browning effect on fresh-cut apple (L* values, colour)", "setting": "fresh-cut apples", "value": "potent anti-browning agent; also recorded: better than that of kojic acid and ascorbic acid; also recorded: some anti-browning effect"}]}]}
